The subject of the experiment is P388 leukemia ip, CD2F1 mice, survival T/C. Nature of the experiment: NCI In Vivo Anticancer Drug Screen. Data for tumor model P388 Leukemia (intraperitoneal) in CD2F1 (CDF1) mice. As to conditions: endpoint: median survival time, higher = longer survival. An outline of the steps:
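Mice carrying the transplanted tumor received test compound or vehicle. Survival was recorded in each group, and the value is the treated-group measurement divided by that of the vehicle-treated control group.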

Setting [1] is: dose: 100.0 mg/kg/injection, schedule: Q04DX003 (ip), vehicle: saline with Tween-80.
Where [2] appears, read: dose: 200.0 mg/kg/injection, schedule: Q01DX009 (ip), vehicle: saline with Tween-80.
[3] abbreviates: dose: 50.0 mg/kg/injection, schedule: Q01DX005 (ip), vehicle: Klucel (hydroxypropylcellulose) (HPC).
[4] abbreviates: dose: 100.0 mg/kg/injection, schedule: Q01DX005 (ip), vehicle: Klucel (hydroxypropylcellulose) (HPC).
The mark [5] stands for this setting: dose: 200.0 mg/kg/injection, schedule: Q01DX005 (ip), vehicle: Klucel (hydroxypropylcellulose) (HPC).
The mark [6] stands for this setting: dose: 50.0 mg/kg/injection, schedule: Q01DX009 (ip), vehicle: saline.
The mark [7] stands for this setting: dose: 100.0 mg/kg/injection, schedule: Q01DX009 (ip), vehicle: saline.
Where [8] appears, read: dose: 200.0 mg/kg/injection, schedule: Q01DX009 (ip), vehicle: saline.
Where [9] appears, read: dose: 6.25 mg/kg/injection, schedule: Q01DX009 (ip), vehicle: saline with Tween-80.
The mark [10] stands for this setting: dose: 12.5 mg/kg/injection, schedule: Q01DX009 (ip), vehicle: saline with Tween-80.
Where [11] appears, read: dose: 50.0 mg/kg/injection, schedule: Q01DX009 (ip), vehicle: saline with Tween-80.
Where [12] appears, read: dose: 50.0 mg/kg/injection, schedule: Q01DX005 (ip), vehicle: saline with Tween-80.

SMILES strings stand for the structures. Where “and” joins values, the source holds several entries; their conditions need not be identical. Equal values may be shown once. Toxic doses and inconclusive results are not listed.

As to `COC(=O)CC(=O)c1ccc(OC(C)C)cc1`, the T/C is 100 % of control (dose: 100.0 mg/kg/injection, schedule: Q01DX009 (ip), vehicle: saline with Tween-80); 100 % of control under setting [1]; 100 % of control under setting [2]; 95 % of control (dose: 200.0 mg/kg/injection, schedule: Q04DX003 (ip), vehicle: saline with Tween-80); 100 % of control (dose: 400.0 mg/kg/injection, schedule: Q01DX009 (ip), vehicle: saline with Tween-80); 100 % of control (dose: 400.0 mg/kg/injection, schedule: Q04DX003 (ip), vehicle: saline with Tween-80).
For `C[Si]1(C)N(c2ccccc2)[Si](C)(c2ccccc2)N1c1ccccc1`, the T/C reads like this: under setting [3], 94 % of control; under setting [4], 111 % of control; under setting [5], 111 % of control.
`Cc1ccc([B-]23OCC[N+]2(CNC(=O)c2ccccc2O)CCO3)cc1` (centres undefined): the T/C was 103 % of control under setting [3], 108 % of control under setting [4] and 103 % of control under setting [5].
In the case of `C/C(=N\N=C(/[Se])N1CCCCCC1)c1ccccn1`, the T/C runs as follows: (dose: 25.0 mg/kg/injection, schedule: Q04DX003 (ip), vehicle: Klucel (hydroxypropylcellulose) (HPC)) 110 % of control; (dose: 50.0 mg/kg/injection, schedule: Q04DX003 (ip), vehicle: Klucel (hydroxypropylcellulose) (HPC)) 118 % of control; (dose: 200.0 mg/kg/injection, schedule: Q04DX003 (ip), vehicle: Klucel (hydroxypropylcellulose) (HPC)) 86 % of control.
Turning to `CC1(C)CC(NC(=O)CCl)CC(C)(C)N1O`, the T/C under setting [6] was 93 % of control, the T/C under setting [7] is 91 % of control and the T/C under setting [8] was 102 % of control.
On to `O=S(=O)(c1ccccc1)N(Cl)Cl`, for which the T/C under setting [9] is 102 % of control and 104 % of control and 123 % of control; the T/C under setting [10] was 104 % of control and 120 % of control and 93 % of control; the T/C under setting [11] was 111 % of control.
For `O=c1c(I)cn(CC(O)CO)c(=O)n1CC(O)CO` (centres undefined), the T/C was 95 % of control under setting [3], 100 % of control under setting [4] and 86 % of control under setting [5].
On to `CC(=O)O.[Cd]`, for which the T/C reads like this: (dose: 1.25 mg/kg/injection, schedule: Q01DX009 (ip), vehicle: saline) 95 % of control; (dose: 1.25 mg/kg/injection, schedule: Q04DX003 (ip), vehicle: saline) 90 % of control; (dose: 2.5 mg/kg/injection, schedule: Q01DX009 (ip), vehicle: saline) 100 % of control; (dose: 2.5 mg/kg/injection, schedule: Q04DX003 (ip), vehicle: saline) 90 % of control; (dose: 5.0 mg/kg/injection, schedule: Q01DX009 (ip), vehicle: saline) 100 % of control; (dose: 5.0 mg/kg/injection, schedule: Q04DX003 (ip), vehicle: saline) 95 % of control.
On to `C[C@H]1C(=O)CCC2[C@]3(C)CC4OC(=O)C5(CC[C@@]6(C)CCC(C)(C)CC6C45C)C3CC[C@@]21C` (some centres undefined), for which the T/C (dose: 8.25 mg/kg/injection, schedule: Q01DX005 (ip), vehicle: Klucel (hydroxypropylcellulose) (HPC)) is 93 % of control.
Consider `CCCCCC/C=C/C1CC(=O)OC1=O` (centres undefined), for which the T/C under setting [1] was 95 % of control.
For `CCC[CH2][Sn]([CH2]CCC)([O]C=O)[O]C=O`, the T/C by setting is: (dose: 0.39 mg/kg/injection, schedule: Q01DX009 (ip), vehicle: saline) 99 % of control and 108 % of control; (dose: 0.79 mg/kg/injection, schedule: Q01DX009 (ip), vehicle: saline) 100 % of control and 92 % of control; (dose: 1.56 mg/kg/injection, schedule: Q01DX009 (ip), vehicle: saline) 86 % of control and 94 % of control.
Turning to `O=C1C2CC(Cl)C(SSC3CC4C(=O)N(SC(Cl)(Cl)C(Cl)Cl)C(=O)C4CC3Cl)CC2C(=O)N1SC(Cl)(Cl)C(Cl)Cl` (centres undefined), the T/C was 108 % of control and 110 % of control (dose: 6.25 mg/kg/injection, schedule: Q01DX005 (ip), vehicle: saline with Tween-80); 101 % of control and 107 % of control (dose: 12.5 mg/kg/injection, schedule: Q01DX005 (ip), vehicle: saline with Tween-80); 115 % of control under setting [12].
With `CS/C(=N/N=C(\C)c1ccccn1)[Se][Se]/C(=N/N=C(\C)c1ccccn1)SC`, the T/C by setting is: under setting [9], 90 % of control; under setting [10], 97 % of control; under setting [11], 93 % of control; under setting [2], 93 % of control.
With `O=[N+]([O-])/C=C/c1cc(Br)c(O)c(Br)c1`, the T/C under setting [6] is 96 % of control, the T/C under setting [7] was 115 % of control and the T/C under setting [8] was 96 % of control.
Turning to `C=CCOc1cc2c(cc1C(CC)c1ccc(OC)cc1)OCO2` (centres undefined), the T/C runs as follows: under setting [3], 101 % of control; under setting [4], 103 % of control; under setting [5], 104 % of control.
Turning to `O=C1NC(=O)C2(CC3CCCC(C2)N3)N1` (centres undefined), the T/C was 101 % of control (dose: 100.0 mg/kg/injection, schedule: Q04DX003 (ip), vehicle: water); 99 % of control (dose: 200.0 mg/kg/injection, schedule: Q04DX003 (ip), vehicle: water); 103 % of control (dose: 400.0 mg/kg/injection, schedule: Q04DX003 (ip), vehicle: water).
As to `O=C(/N=C1\N=Nc2nc(C(C(=O)c3cccs3)c3nc4n(c3O)/C(=N/C(=O)Nc3ccc(Cl)cc3)N=N4)c(O)n21)Nc1ccc(Cl)cc1` (centres undefined), the T/C (dose: 60.0 mg/kg/injection, schedule: Q01DX005 (ip), vehicle: saline with Tween-80) is 95 % of control; the T/C (dose: 120.0 mg/kg/injection, schedule: Q01DX005 (ip), vehicle: saline with Tween-80) was 95 % of control; the T/C (dose: 240.0 mg/kg/injection, schedule: Q01DX005 (ip), vehicle: saline with Tween-80) was 100 % of control.
`Cn1c(=O)c2c(ncn2CCN2CCNCC2)n(C)c1=O`: the T/C by setting is: (dose: 50.0 mg/kg/injection, schedule: Q01DX005 (ip), vehicle: distilled water + alcohol) 102 % of control; (dose: 100.0 mg/kg/injection, schedule: Q01DX005 (ip), vehicle: distilled water + alcohol) 100 % of control; (dose: 200.0 mg/kg/injection, schedule: Q01DX005 (ip), vehicle: distilled water + alcohol) 100 % of control.
Turning to `COc1ccc(CN(CCCCCCN(Cc2ccc(OC)cc2)CC23CC4CC(CC(C4)C2)C3)CC23CC4CC(CC(C4)C2)C3)cc1`, the T/C by setting is: (dose: 100.0 mg/kg/injection, schedule: Q04DX002 (ip), vehicle: saline with Tween-80) 98 % of control; (dose: 200.0 mg/kg/injection, schedule: Q04DX002 (ip), vehicle: saline with Tween-80) 94 % of control; (dose: 400.0 mg/kg/injection, schedule: Q04DX002 (ip), vehicle: saline with Tween-80) 94 % of control.
For the compound `O=C1c2ccccc2NC1c1ccc2ccccc2n1` (centres undefined), the T/C (dose: 25.0 mg/kg/injection, schedule: Q01DX009 (ip), vehicle: Klucel (hydroxypropylcellulose) (HPC)) is 94 % of control; the T/C (dose: 50.0 mg/kg/injection, schedule: Q01DX009 (ip), vehicle: Klucel (hydroxypropylcellulose) (HPC)) was 93 % of control; the T/C (dose: 100.0 mg/kg/injection, schedule: Q01DX009 (ip), vehicle: Klucel (hydroxypropylcellulose) (HPC)) is 86 % of control.
Take `N#C[C@H]1O[C@H]1c1ccc[n+]([O-])c1`: the T/C reads like this: (dose: 12.5 mg/kg/injection, schedule: Q01DX005 (ip), vehicle: saline) 107 % of control; (dose: 25.0 mg/kg/injection, schedule: Q01DX005 (ip), vehicle: saline) 102 % of control; (dose: 50.0 mg/kg/injection, schedule: Q01DX005 (ip), vehicle: saline) 103 % of control and 115 % of control.
For `CN(C)CCNc1ccc(CO)c2sc3ccc(O)cc3c(=O)c12`, the T/C reads like this: (dose: 25.0 mg/kg/injection, schedule: Q01DX005 (ip), vehicle: saline with Tween-80) 160 % of control and 162 % of control; under setting [12], 173 % of control and 175 % of control; (dose: 100.0 mg/kg/injection, schedule: Q01DX005 (ip), vehicle: saline with Tween-80) 190 % of control and 194 % of control; (dose: 200.0 mg/kg/injection, schedule: Q01DX005 (ip), vehicle: saline with Tween-80) 222 % of control.
Take `C=C(C)C(=O)OC1C(C(C)CCCO)=C(CO)CC2OC(=O)C(=C)C21` (centres undefined): the T/C is 108 % of control (dose: 3.12 mg/kg/injection, schedule: Q01DX009 (ip), vehicle: saline + alcohol); 112 % of control (dose: 6.25 mg/kg/injection, schedule: Q01DX009 (ip), vehicle: saline + alcohol); 118 % of control (dose: 12.5 mg/kg/injection, schedule: Q01DX009 (ip), vehicle: saline + alcohol); 111 % of control (dose: 25.0 mg/kg/injection, schedule: Q01DX009 (ip), vehicle: saline + alcohol).

(Values after PubChem BioAssay AID330 (DTP/NCI, 2004).)
